The text below walks through data of patent US20050282818A1, “Ubiquitin ligase inhibitors” (Rigel Pharmaceuticals, Inc., priority 2004, published 2005).

One test addresses T1, TRAF6/Uev1A/Ubc13 (Homo sapiens, UniProt Q9Y4K3).
T1 sequence (Q9Y4K3 1-522): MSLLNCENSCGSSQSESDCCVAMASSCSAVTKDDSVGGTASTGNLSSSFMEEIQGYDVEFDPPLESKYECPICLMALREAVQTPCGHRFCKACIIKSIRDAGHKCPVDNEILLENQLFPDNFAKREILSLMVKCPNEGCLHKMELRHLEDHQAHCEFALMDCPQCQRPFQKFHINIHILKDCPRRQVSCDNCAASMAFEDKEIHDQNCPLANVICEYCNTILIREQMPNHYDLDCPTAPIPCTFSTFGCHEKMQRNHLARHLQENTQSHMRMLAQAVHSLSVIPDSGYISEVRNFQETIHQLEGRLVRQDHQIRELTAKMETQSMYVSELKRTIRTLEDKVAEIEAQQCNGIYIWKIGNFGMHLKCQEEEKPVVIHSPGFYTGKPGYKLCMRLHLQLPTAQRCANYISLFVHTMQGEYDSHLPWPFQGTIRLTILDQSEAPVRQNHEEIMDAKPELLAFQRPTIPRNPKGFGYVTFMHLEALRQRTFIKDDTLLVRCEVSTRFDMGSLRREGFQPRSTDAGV
Kind of test: TRAF6/Uev1A/Ubc13 plate-based ubiquitin ligase assay. It is filed as biochemical. In outline: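 Ligase activity was read as luminescence from anti-Flag/HRP detection of Flag-ubiquitin bound to casein-blocked Ni-plates alongside His-ubiquitin after a 1 h room-temperature reaction. Buffer: 62.5 mM Tris pH 7.5, 6.25 mM MgCl2, 1.0 mM DTT, 2 μM ATP; E1, Uev1a/Ubc13 and TRAF6 added last to start. IC50s derived across compound concentrations.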

Test [1] has as its system ICAM-1 expression in A549 cells. Kind of test: ICAM assay (IL-1 induced ICAM-1/CD54 expression in A549 cells). The settings on record: Homo sapiens, A549, ICAM assay. Type of test: cell-based, human. In outline:
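A549 cells, 10,000/well, preincubated with compound 1 h at 37° C, then stimulated with IL-1 (4 μl of 25 ng/ml added) for 4 h. Surface ICAM-1 detected by anti-CD54 plus anti-mouse IgG staining for 1 h, luminescent read-out after PBS washes.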

Another test concerns the target APC11/APC2 (Homo sapiens, UniProt Q9NYG5+Q9UJX6). Kind of test: APC-11/APC-2 ligase assay (APC auto ubiquitination). Type of test: biochemical. The settings on record: APC assay. As to the method: For the assays described below, the TRAF6/Uev1A/UBC13 assay is the biochemical plate-based assay of TRAF6 ligase activity using Ubc13 as the E2 enzyme. The gel-based assay is the biochemical solution-based TRAF6 ligase assay (by SDS-PAGE and Western blot) to confirm the plate-based ELISA assay. The APC assay is an assay which is another E3 ligase (APC2/APC11) biochemical assay.
E3 (His APC11/APC2— “APC”) auto ubiquitination was measured as described in U.S. patent application Ser. No. 09/826,312 (Publication No. U.S. 2002 0042083 A1), which is incorporated by reference in its entirety. Details of the protocol are described below. Activity in the presence of the compound was determined relative to a parallel control in which only DMSO was added. Values of the IC50 were typically determined using 6 or 8 different concentrations of the compound, although as few as 2 concentrations may be used to approximate the IC50 value.
Nickel coated 96 well plates (Pierce 15242) were blocked for 1 hour with 100 μl of blocking buffer at room temperature. The plates were washed 4 times with 225 μl of 1 […]PBS and 80 μl of the reaction buffer were added that contained 100 ng/well of Flag ubiquitin. To this, 10 μl of the test compound diluted in DMSO were added. After the test compound was added, 10 μl of E1 (human), E2 (Ubch5c), and APC in Protein Buffer was added to obtain a final concentration of 5 ng/well of E1, 20 ng/well of E2 and 100 ng/well of APC. The plates were shaken for 10 minutes and incubated at room temperature for 1 hour. After incubation, the plates were washed 4 times with 225 μl of 1×PBS and 100 μl/well of Antibody Mix were added to each well. The plates were incubated at room temperature for another hour after which they were washed 4 times with 225 μl of 1×PBS and 100 μl/well of Lumino substrate were added to each well. The luminescence was measured by using a BMG luminescence microplate reader. The Blocking Buffer (1% Casein in 1×PBS) was stored at 4° C. until use.
The reaction buffer consisted of 62.5 mM Tris pH 7.6 (Trizma Base—Sigma T 8524), 3 mM MgCl2 (Magnesium Chloride—Sigma M 2393), 1 mM DTT (Sigma D 9779), 2.5 mM ATP (Roche Boehringer Mann Corp. 635 316), 100 ng/well of Flag ubiquitin, 0.1% BSA (Sigma A 7906), and 0.05% Tween 20 (Sigma P 7949).
The Protein Buffer consisted of 20 mM Tris pH 7.6, 10% glycerol (Sigma G 5516) and 1 mM DTT.
The antibody mix consisted of 0.25% BSA (Sigma A 7906) in 1×PBS, 1/50,000 anti Flag (Sigma F 3165), 1/100,000 of anti Mouse IgG HRP (Jackson Imrunoresearch #115 035 146).
The substrate mix consisted of SuperSignal Substrate from Pierce (catalog number 37070ZZ) and was prepared by mixing 100 ml of the peroxide solution, 100 ml of the enhancer solution and 100 ml of Milli Q® water.

Structures are written as SMILES.

The IC50 is the point on the concentration scale where inhibition reaches its midpoint. Lower therefore signals inhibition by little substance.

Chain of APC11/APC2 (Q9NYG5 whole entry): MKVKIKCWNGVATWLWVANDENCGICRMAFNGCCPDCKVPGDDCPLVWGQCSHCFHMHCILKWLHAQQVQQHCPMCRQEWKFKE
Chain of APC11/APC2 (Q9UJX6 whole entry): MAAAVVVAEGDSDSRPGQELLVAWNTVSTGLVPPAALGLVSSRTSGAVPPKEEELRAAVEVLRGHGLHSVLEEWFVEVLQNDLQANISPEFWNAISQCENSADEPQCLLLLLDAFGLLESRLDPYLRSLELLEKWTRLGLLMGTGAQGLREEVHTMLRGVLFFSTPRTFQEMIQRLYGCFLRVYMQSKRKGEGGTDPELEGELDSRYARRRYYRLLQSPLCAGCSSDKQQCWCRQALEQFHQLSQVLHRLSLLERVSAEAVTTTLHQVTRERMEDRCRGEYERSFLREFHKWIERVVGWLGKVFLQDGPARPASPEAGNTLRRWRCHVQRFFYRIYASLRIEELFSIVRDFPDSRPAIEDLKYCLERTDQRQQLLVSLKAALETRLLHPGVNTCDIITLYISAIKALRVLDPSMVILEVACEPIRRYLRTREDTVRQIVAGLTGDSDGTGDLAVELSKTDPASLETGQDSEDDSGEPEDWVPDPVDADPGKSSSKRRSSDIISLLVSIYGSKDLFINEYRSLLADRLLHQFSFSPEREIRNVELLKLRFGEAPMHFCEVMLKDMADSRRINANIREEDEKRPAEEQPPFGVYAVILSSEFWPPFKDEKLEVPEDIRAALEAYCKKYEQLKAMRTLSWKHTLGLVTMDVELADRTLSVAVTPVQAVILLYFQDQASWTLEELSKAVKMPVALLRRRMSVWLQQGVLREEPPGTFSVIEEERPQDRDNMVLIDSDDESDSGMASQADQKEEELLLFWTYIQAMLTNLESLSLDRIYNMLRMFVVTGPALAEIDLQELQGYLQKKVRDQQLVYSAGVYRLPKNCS

With `O=S(=O)(Nc1ccccc1OC(F)(F)F)c1ccc(Cl)c2nonc12` [compound 366, 7-chloro-N-(2-[trifluoromethoxy]phenyl)-2,1,3-benzoxadiazole-4-sulfonamide], the IC50 against TRAF6/Uev1A/Ubc13 is at least 20 µM; in test [1] it was 1 to 20 µM; against APC11/APC2, at least 20 µM.

On to `COc1ccc(OC)c(NS(=O)(=O)c2ccc(Nc3ccccc3OC)c3nonc23)c1` [compound 367, N-(2,5-dimethoxyphenyl)-7-([2-methoxyphenyl]amino)-2,1,3-benzoxadiazole-4-sulfonamide], for which the 50% inhibitory concentration (IC50) (on TRAF6/Uev1A/Ubc13; in test [1]; against APC11/APC2) was at least 20 µM in each case.

For the compound `Cc1cc(NS(=O)(=O)c2ccc(Cl)c3nonc23)no1` [compound 368, 7-chloro-N-(5-methylisoxazol-3-yl)-2,1,3-benzoxadiazole-4-sulfonamide], the 50% inhibitory concentration (IC50) (against TRAF6/Uev1A/Ubc13; in test [1]; on APC11/APC2) was at least 20 µM throughout.

Take `COc1ccc(OC)c(NS(=O)(=O)c2ccc(N3CCOCC3)c3nonc23)c1` [compound 369, N-(2,5-dimethoxyphenyl)-7-(morpholin-4-yl)-2,1,3-benzoxadiazole-4-sulfonamide]: the IC50 (against TRAF6/Uev1A/Ubc13; in test [1]; against APC11/APC2) was at least 20 µM throughout.

On to `Cc1cc2cc(NS(=O)(=O)c3ccc(Cl)c4nonc34)ccc2[nH]1` [compound 370, 7-chloro-N-(2-methyl-1H-indol-5-yl)-2,1,3-benzoxadiazole-4-sulfonamide], for which the IC50 against TRAF6/Uev1A/Ubc13 was at least 20 µM; in test [1], 1 to 20 µM; against APC11/APC2, at least 20 µM.

Regarding `O=S(=O)(Nc1ccc(F)cc1F)c1ccc(Nc2ccc(F)cc2F)c2nonc12` [compound 371, N-(2,4-difluorophenyl)-7-([2,4-difluorophenyl]amino)-2,1,3-benzoxadiazole-4-sulfonamide], the IC50 (against TRAF6/Uev1A/Ubc13; in test [1]; at APC11/APC2) was at least 20 µM throughout.

As to `O=S(=O)(Nc1ccccc1F)c1ccc(N2CCOCC2)c2nonc12` [compound 372, N-(2-fluorophenyl)-7-(morpholin-4-yl)-2,1,3-benzoxadiazole-4-sulfonamide], the IC50 (against TRAF6/Uev1A/Ubc13; in test [1]; on APC11/APC2) was at least 20 µM in each case.

Take `O=[N+]([O-])c1ccc(Nc2ccccc2OC(F)(F)F)c2nonc12` [compound 373]: the values for the IC50 (against TRAF6/Uev1A/Ubc13; in test [1]; against APC11/APC2) were at least 20 µM, 1 to 20 µM and 1 to 20 µM, respectively.

For `O=S(=O)(Nc1ccncn1)c1ccc(Cl)c2nonc12` [compound 374, 7-chloro-N-1,3-pyrimidin-4-yl-2,1,3-benzoxadiazole-4-sulfonamide], the concentration for half-maximal inhibition (IC50) (against TRAF6/Uev1A/Ubc13; in test [1]; on APC11/APC2) was at least 20 µM throughout.

As to `Nc1ccc(N2CCOCC2)c2nonc12` [compound 375, 7-(morpholin-4-yl)-2,1,3-benzoxadiazol-4-amine], the half-maximal inhibitory concentration (IC50) (at TRAF6/Uev1A/Ubc13; in test [1]; against APC11/APC2) was at least 20 µM each time.

`O=S(=O)(Nc1cccc(F)c1F)c1ccc(Sc2cccc3cccnc23)c2nonc12` [compound 376, N-(2,3-difluorophenyl)-7-(quinolin-8-ylthio)-2,1,3-benzoxadiazole-4-sulfonamide]: the IC50 at TRAF6/Uev1A/Ubc13 was at least 20 µM; in test [1], at least 20 µM; at APC11/APC2, 1 to 20 µM.

On to `O=S(=O)(Nc1cccc(F)c1F)c1ccc(Sc2ccncn2)c2nonc12` [compound 377, N-(2,3-difluorophenyl)-7-(pyrimidin-4-ylthio)-2,1,3-benzoxadiazole-4-sulfonamide], for which the half-maximal inhibitory concentration (IC50) (at TRAF6/Uev1A/Ubc13; in test [1]; on APC11/APC2) was at least 20 µM in each case.

In the case of `COc1ccccc1Sc1ccc(S(=O)(=O)Nc2cccc(F)c2F)c2nonc12` [compound 378, N-(2,3-difluorophenyl)-7-([2-methoxyphenyl]thio)-2,1,3-benzoxadiazole-4-sulfonamide], the concentration for half-maximal inhibition (IC50) against TRAF6/Uev1A/Ubc13 is at least 20 µM; in test [1] it was at least 20 µM; on APC11/APC2, 1 to 20 µM.

For `O=S(=O)(Nc1cccc(F)c1F)c1ccc(Sc2cccc3ccccc23)c2nonc12` [compound 379, N-(2,3-difluorophenyl)-7-(naphthalen-1-ylthio)-2,1,3-benzoxadiazole-4-sulfonamide], the IC50 is 1 to 20 µM against TRAF6/Uev1A/Ubc13, at least 20 µM in test [1] and 1 to 20 µM against APC11/APC2.

`O=S(=O)(Nc1ncccc1OCc1ccccc1)c1ccc(Cl)c2nonc12` [compound 380, N-(3-benzyloxypyridin-2-yl)-7-chloro-2,1,3-benzoxadiazole-4-sulfonamide]: the IC50 was at least 20 µM on TRAF6/Uev1A/Ubc13, 1 to 20 µM in test [1] and at least 20 µM against APC11/APC2.

`COc1ccc(C)cc1NS(=O)(=O)c1ccc(Cl)c2nonc12` [compound 381, 7-chloro-N-(2-methoxy-5-methylphenyl)-2,1,3-benzoxadiazole-4-sulfonamide]: the IC50 is at least 20 µM against TRAF6/Uev1A/Ubc13, 1 to 20 µM in test [1] and at least 20 µM at APC11/APC2.

`O=S(=O)(Nc1ncccc1OCc1ccccc1)c1ccc(N2CCOCC2)c2nonc12` [compound 382, N-(3-benzyloxypyridin-2-yl)-7-(morpholin-4-yl)-2,1,3-benzoxadiazole-4-sulfonamide]: the IC50 (on TRAF6/Uev1A/Ubc13; in test [1]; on APC11/APC2) was at least 20 µM each time.

For the compound `O=S(=O)(Nc1cccc2ccc(O)cc12)c1ccc(Cl)c2nonc12` [compound 383, 7-chloro-N-(7-hydroxynaphthalen-1-yl)-2,1,3-benzoxadiazole-4-sulfonamide], the IC50 (against TRAF6/Uev1A/Ubc13; in test [1]; against APC11/APC2) was 1 to 20 µM throughout.

On to `COc1ccc(C)cc1NS(=O)(=O)c1ccc(Sc2cccc3cccnc23)c2nonc12` [compound 384, N-(2-methoxy-5-methylphenyl)-7-(quinolin-8-ylthio)-2,1,3-benzoxadiazole-4-sulfonamide], for which the half-maximal inhibitory concentration (IC50) at TRAF6/Uev1A/Ubc13 is 1 to 20 µM; in test [1] it was at least 20 µM; against APC11/APC2, at least 20 µM.

In the case of `O=S(=O)(Nc1cccc2ccc(O)cc12)c1ccc(N2CCOCC2)c2nonc12` [compound 385, N-(7-hydroxynaphthalen-1-yl)-7-(morpholin-4-yl)-2,1,3-benzoxadiazole-4-sulfonamide], the IC50 (at TRAF6/Uev1A/Ubc13; in test [1]; on APC11/APC2) was at least 20 µM throughout.

As for `COc1cc(C)ccc1NS(=O)(=O)c1ccc(N2CCOCC2)c2nonc12` [compound 386, N-(2-methoxy-4-methylphenyl)-7-(morpholin-4-yl)-2,1,3-benzoxadiazole-4-sulfonamide], the IC50 (against TRAF6/Uev1A/Ubc13; in test [1]; against APC11/APC2) was at least 20 µM throughout.
